Measurements reported in patent US9833497B2, “Human originated EGF domain proteins and use of the same” (CHENGDU SOURCEBIO LIMITED-LIABILITY COMPANY, priority 2013, dated 2017).

Legend:
Assay type in all cases: cell-based
Klebsiella pneumonia = assay: MIC against Gram-negative bacteria: Klebsiella pneumonia; conditions: for MIC (μg/mL) K. pneumonia / MIC: K. pneumonia
Procedure, shortened: (§1)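 The recombinant human-originated EGF domain proteins were serially diluted two-fold against bacteria at 5×10^5 CFU/mL in LB medium. After shaken incubation at 37° C, the lowest concentration with no bacterial growth was recorded as the MIC.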

Pseudomonas aeruginosa = assay: MIC against Gram-negative bacteria: Pseudomonas aeruginosa; conditions: for MIC (μg/mL) P. aeruginosa / MIC: P. aeruginosa
Procedure, shortened: as §1

Moraxella catarrhalis = assay: MIC against Gram-negative bacteria: Moraxella catarrhalis; conditions: for MIC (μg/mL) M. catarrhalis / MIC: M. catarrhalis
Procedure, shortened: as §1

Aeromonas hydrophila = assay: MIC against Gram-negative bacteria: Aeromonas hydrophila; conditions: for MIC (μg/mL) A. hydrophila / MIC: A. hydrophila
Procedure, shortened: as §1

E. coli DH5α = assay: Antibacterial activity: MIC and growth curve against E. coli DH5α in 96-well plate; conditions: minimal inhibitory concentration against E. coli DH5α; 96-well plate, 5×10^5 CFU/mL, 37° C., judged after 8 h
Procedure, shortened: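 Log-phase bacteria (OD600 ~0.5) resuspended in LB at 5×10^5 CFU/mL, exposed to recombinant protein at 50, 25, 12.5 μg/mL final in triplicate, 37 °C shaking at 175 rpm. OD600 read every 30 min; MIC is lowest concentration showing no growth.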

Proteus vulgaris = assay: MIC against Gram-negative bacteria: Proteus vulgaris; conditions: for MIC (μg/mL) P. vulgaris / MIC: P. vulgaris
Procedure, shortened: as §1

E. coli BL21 = assay: MIC against Gram-negative bacteria: E. coli BL21; conditions: for MIC (μg/mL) E. coli BL21 / MIC: E. coli BL21
Procedure, shortened: as §1

Enterobacter cloacae = assay: MIC against Gram-negative bacteria: Enterobacter cloacae; conditions: for MIC (μg/mL) E. cloacae / MIC: E. cloacae
Procedure, shortened: as §1

Citrobacter diversus = assay: MIC against Gram-negative bacteria: Citrobacter diversus; conditions: for MIC (μg/mL) C. diversus / MIC: C. diversus
Procedure, shortened: as §1

Proteus mirabilis = assay: MIC against Gram-negative bacteria: Proteus mirabilis; conditions: for MIC (μg/mL) P. mirabilis / MIC: P. mirabilis
Procedure, shortened: as §1

Serratia marcescens = assay: MIC against Gram-negative bacteria: Serratia marcescens; conditions: for MIC (μg/mL) S. marcescens / MIC: S. marcescens
Procedure, shortened: as §1

[1] = 10 h cultivation at 37° C., 5×10^5 CFU/mL
[2] = 10 h cultivation at 37° C., 5×10^5 CFU/mL, two-fold serial dilution
[3] = 96-well plate, 5×10^5 CFU/mL, 37° C., 10 h

Row | Substance | MIC (μg/mL) K. pneumonia (Klebsiella pneumonia; [1]) [µg/mL] | MIC (μg/mL) P. aeruginosa (Pseudomonas aeruginosa; [1]) [µg/mL] | MIC (μg/mL) M. catarrhalis (Moraxella catarrhalis; [1]) [µg/mL] | MIC (μg/mL) A. hydrophila (Aeromonas hydrophila; [1]) [µg/mL] | MIC (E. coli DH5α) [µg/mL] | MIC (μg/mL) P. vulgaris (Proteus vulgaris; [1]) [µg/mL] | MIC (μg/mL) E. coli BL21 (E. coli BL21; [1]) [µg/mL] | MIC (μg/mL) E. cloacae (Enterobacter cloacae; [1]) [µg/mL] | MIC (μg/mL) C. diversus (Citrobacter diversus; [1]) [µg/mL] | MIC (μg/mL) P. mirabilis (Proteus mirabilis; [1]) [µg/mL] | MIC K. pneumonia (Klebsiella pneumonia; [2]) [µg/mL] | MIC P. aeruginosa (Pseudomonas aeruginosa; [2]) [µg/mL] | MIC M. catarrhalis (Moraxella catarrhalis; [2]) [µg/mL] | MIC A. hydrophila (Aeromonas hydrophila; [2]) [µg/mL] | MIC P. vulgaris (Proteus vulgaris; [2]) [µg/mL] | MIC E. coli BL21 (E. coli BL21; [2]) [µg/mL] | MIC E. cloacae (Enterobacter cloacae; [2]) [µg/mL] | MIC C. diversus (Citrobacter diversus; [2]) [µg/mL] | MIC P. mirabilis (Proteus mirabilis; [2]) [µg/mL] | MIC S. marcescens (Serratia marcescens; [2]) [µg/mL] | further results
1 | PRT211 (DIDECSYSSYLCQYRCVNEPGRFSCHCPQGYQ; listed as Homo sapiens) | 12.5 | 25 | 12.5 | 50 | 25 | 50 | 12.5 | 25 | 25 | 25 | – | – | – | – | – | – | – | – | – | – | MIC (μg/mL) S. marcescens (Serratia marcescens; [1]): 25 µg/mL
2 | PRT804 (HGAHCELRCPCQNGGTCHHITGECACPPGWTGAVCA; listed as Homo sapiens) | 50 | 12.5 | 50 | 12.5 | 12.5 | 25 | 50 | 12.5 | 12.5 | 12.5 | – | – | – | – | – | – | – | – | – | – | MIC (μg/mL) S. marcescens (Serratia marcescens; [1]): 50 µg/mL
3 | PRT1185 (REFQCDAYTCSNGGTCYDSGDTFRCACPPGWKGSTCA; listed as Homo sapiens) | – | – | – | – | 50 | – | – | – | – | – | 50 | 25 | 50 | 50 | 50 | 12.5 | 12.5 | 12.5 | 12.5 | 12.5 | –
4 | PRT232 (DIDECRQDPSTCGPNSICTNALGSYSCGCIAGFHPNPEGSQKDGNFSCQ; listed as Homo sapiens) | 12.5 | 25 | 12.5 | 12.5 | 25 | 12.5 | 12.5 | 25 | 25 | 25 | – | – | – | – | – | – | – | – | – | – | MIC (μg/mL) S. marcescens (Serratia marcescens; [1]): 25 µg/mL
5 | PRT955 (DVDECLLQPNACQNGGTCANRNGGYGCVCVNGWSGDDCS; listed as Homo sapiens) | – | – | – | – | 50 | – | – | – | – | – | – | – | – | – | – | – | – | – | – | – | MIC (Klebsiella pneumonia; 10 h cultivation at 37° C.): 12.5 µg/mL; MIC (Pseudomonas aeruginosa; 10 h cultivation at 37° C.): 25 µg/mL; MIC (Moraxella catarrhalis; 10 h cultivation at 37° C.): 12.5 µg/mL; MIC (Aeromonas hydrophila; 10 h cultivation at 37° C.): 12.5 µg/mL; MIC (Proteus vulgaris; 10 h cultivation at 37° C.): 25 µg/mL; MIC (E. coli BL21; 10 h cultivation at 37° C.): 12.5 µg/mL; MIC (Enterobacter cloacae; 10 h cultivation at 37° C.): 25 µg/mL; MIC (Citrobacter diversus; 10 h cultivation at 37° C.): 25 µg/mL; MIC (Proteus mirabilis; 10 h cultivation at 37° C.): 12.5 µg/mL; MIC (Serratia marcescens; 10 h cultivation at 37° C.): 12.5 µg/mL
6 | PRT891 (DVDECASTPCKNGAKCLDGPNTYTCVCTEGYTGTHCE; listed as Homo sapiens) | 25 | 12.5 | 25 | 25 | 12.5 | 25 | 25 | 12.5 | 12.5 | 12.5 | – | – | – | – | – | – | – | – | – | – | MIC (μg/mL) S. marcescens (Serratia marcescens; [1]): 50 µg/mL
7 | PRT671 (RVVVCPLPCMNGGQCSSRNQCLCPPDFTGRFCQ; listed as Homo sapiens) | – | – | – | – | 50 | – | – | – | – | – | – | – | – | – | – | – | – | – | – | – | MIC K. pneumonia (Klebsiella pneumonia; [3]): 12.5 µg/mL; MIC P. aeruginosa (Pseudomonas aeruginosa; [3]): 12.5 µg/mL; MIC M. catarrhalis (Moraxella catarrhalis; [3]): 25 µg/mL; MIC A. hydrophila (Aeromonas hydrophila; [3]): 25 µg/mL; MIC P. vulgaris (Proteus vulgaris; [3]): 25 µg/mL; MIC E. coli BL21 (E. coli BL21; [3]): 12.5 µg/mL; MIC E. cloacae (Enterobacter cloacae; [3]): 12.5 µg/mL; MIC C. diversus (Citrobacter diversus; [3]): 12.5 µg/mL; MIC P. mirabilis (Proteus mirabilis; [3]): 12.5 µg/mL; MIC S. marcescens (Serratia marcescens; [3]): 12.5 µg/mL
8 | PRT1111 (SEDMCSPDPCFNGGTCLVTWNDFHCTCPANFTGPTCA; listed as Homo sapiens) | – | – | – | – | 12.5 | – | – | – | – | – | 50 | 12.5 | 25 | 25 | 25 | 50 | 25 | 12.5 | 50 | 12.5 | –
9 | PRT1064 (INECLSRKLSGCSQDCEDLKIGFKCRCRPGFRLKDDGRTCA; listed as Homo sapiens) | – | – | – | – | 25 | – | – | – | – | – | 12.5 | 25 | 25 | 25 | 25 | 50 | 50 | 12.5 | 50 | 12.5 | –
10 | PRT1101 (MKDPCFSNPCQGSATCVNTPGERSFLCKCPPGYSGTICE; listed as Homo sapiens) | – | – | – | – | 25 | – | – | – | – | – | 12.5 | 25 | 25 | 50 | 25 | 50 | 25 | 12.5 | 50 | 12.5 | –
11 | PRT417 (DVNECQRYPGRLCGHKCENTLGSYLCSCSVGFRLSVDGRSCE; listed as Homo sapiens) | – | – | – | – | 25 | – | – | – | – | – | – | – | – | – | – | – | – | – | – | – | MIC (Klebsiella pneumonia; [1]): 12.5 µg/mL; MIC (Pseudomonas aeruginosa; [1]): 25 µg/mL; MIC (Moraxella catarrhalis; [1]): 12.5 µg/mL; MIC (Aeromonas hydrophila; [1]): 12.5 µg/mL; MIC (Proteus vulgaris; [1]): 12.5 µg/mL; MIC (E. coli BL21; [1]): 50 µg/mL; MIC (Enterobacter cloacae; [1]): 25 µg/mL; MIC (Citrobacter diversus; [1]): 25 µg/mL; MIC (Proteus mirabilis; [1]): 12.5 µg/mL; MIC (Serratia marcescens; [1]): 12.5 µg/mL
12 | PRT1062 (LQGNCSRLGCQHHCVPTLDGPTCYCNSSFQLQADGKTCK; listed as Homo sapiens) | – | – | – | – | 25 | – | – | – | – | – | 12.5 | 25 | 25 | 25 | 25 | 50 | 25 | 50 | 12.5 | 50 | –
